Assay [1] is described as follows: Treatment of cardiovascular diseases. It counts as in vivo, human. As for the experimental part:
The subjects were treated with sodium carbonate with about at least 2 g daily, with improvement occurring within short time, within about 1-2 weeks.

Assay [2] in a line: Treatment of skin diseases (psoriasis, neurodermatitis). It counts as in vivo, human. The protocol: The term skin diseases describes in particular psoriasis and neurodermatitis. Basically, in the case of psoriasis patients the inventive dosing schedule is very welcome, because it counterbalances the negative effects of very strong medications that are administered in such cases; these improve by 65-80% with the inventive dosing schedule.
The subjects were treated with sodium carbonate with about 2 g+daily, after which the normal effect is achieved as described above; 1-2 weeks.

The next assay concerns tumor tissue. Kind of assay: Treatment of cancer under medical supervision.
Assay [3] in a line: Treatment of obesity, cellulitis, cellulite, acne.
Experimental: Test series 1: The subjects were treated with vitamins, trace elements (ZK), and/or natural medicines individually and in combination.
Alkaline saturation of the body, at plasma pH of a maximum of 8.5.
The nature of assay [4]: Treatment of acidosis, test series with and without Na.
Experimental: In order to restore the body rapidly and successfully, test series were performed with and without Na.
Test series 1: The subjects were treated with vitamins, trace elements, and/or natural medicines individually and in combination.
Where [5] appears, read: test series 2, at least 2 g daily.

Experimental for tumor tissue: The subjects were treated under medical supervision with antibiotics and vitamins, trace elements, and/or natural medicines individually and in combination.

With `O=C([O-])[O-].[Na+].[Na+]` [sodium carbonate], the “time until improvement occurred” value in assay [1] (about at least 2 g daily) and in assay [4] (setting [5]) was 1-2 weeks throughout. For the same molecule, the “uptake of mineral substances and natural medicines” value in assay [1] (cardiovascular diseases) was “improved considerably”; in the assay with tumor tissue (used internally and externally) it was “improved considerably”; in assay [3] (test series 2) it was “improved considerably”; in assay [4] (test series 2), “improved considerably and obviously”. Moreover, the rehabilitation in assay [1] (cardiovascular diseases, followed by vitamins and trace elements) is 100%; in assay [3] (obesity, cellulitis, cellulite, acne) it was 95%. For the same molecule, in assay [2] (about 2 g+ daily), the “time until the normal effect is achieved” value was 1-2 weeks. In addition, the considerable improvement result in assay [2] (psoriasis or neurodermatitis patients) is recorded as “about 80%”. In addition, in the assay on tumor tissue (cancer, at least 2 g daily), the “time until tissue reacted perceptibly” value was 1-2 weeks. In the assay with tumor tissue (cancer, statements made by the subjects), the swelling reduced result was “about 80%”. Moreover, the “reduction in tumor size” value in the assay with tumor tissue (cancer, to date) was “about 30%”. The weight change entry in assay [3] (followed by high-dose vitamins and acids for several weeks, no yo-yo effect over about 2 years) is on record as “extensive weight reduction”. The “time until tissue responded perceptibly” value in assay [3] (setting [5]) is given as 1-2 weeks. In assay [4] (test series 2, followed by vitamins and trace elements), this molecule yielded a successful of 100%.

Source of the values: patent US20160095894A1, “DIETETIC MULTI-COMPONENT SYSTEM” (priority 2011, published 2016).
